≈ marks a conversion by molar mass, not a printed value.
Legend:
Type in all cases: cell-based
E. coli (KPC-2) = experiment: microbe, parasite or virus in culture; details: E. coli (KPC-2); for MIC of aztreonam with beta-lactamase inhibitor: AZ + BLI at 2 μg/mL; for Activity of Beta-Lactam 5 with beta-lactamase inhibitor: Beta-Lactam 5 + BLI at 2 μg/mL; for MIC of ceftazidime with beta-lactamase inhibitor: Ceft + BLI at 2 μg/mL; for MIC of meropenem with beta-lactamase inhibitor: Mero + BLI at 2 μg/mL
Description: (§1) MICs were determined by the broth microdilution method in accordance with Clinical and Laboratories Institute (CLSI) guidelines. In brief, fresh overnight bacterial cultures were suspended in sterile saline, and adjusted to a 0.5 McFarland turbidity standard. Bacterial suspensions were then diluted in cation adjusted Mueller-Hinton Broth (MHB II; BBL) to yield a final inoculum of approximately 5×10^5 colony-forming units (CFU)/mL. A master plate of antibiotics was prepared at a concentration equivalent to hundred-fold the highest desired final concentration in 100% dimethyl sulfoxide (DMSO). The master antibiotic plate was then diluted by serial twofold dilution with a multichannel pipette. The resulting dilution series of compounds were diluted 1:10 with sterile water or a solution of beta-lactamase inhibitor prepared at a concentration equivalent to eleven-fold the desired final concentration in deionized water leading to a 10% DMSO final concentration. A volume of 10 μL of the drug dilution series was transferred to 96-well assay plates. Assay plates were inoculated with 90 μL of bacterial suspensions and incubated at 35° C. for 20 hrs. The assay plates were read using a microtiter plate reader (Molecular Devices) at 600 nm as well as by visual observation with a reading mirror. The lowest concentration of the compound that prevented visible growth was recorded as the MIC.
(§2) Synergy or potentiation of beta-lactam antibiotics through inhibition of Q-lactamases was assessed against an isogenic panel of E. coli strains, each expressing a unique beta-lactamase, and against clinical strains.
(§3) Strain NB27273 (BW25113 pspB::Km^r) was obtained from the Keio transposon insertion collection. The strain has the pspB gene replaced by a kanamycin resistance marker (BW25113 pspB::Km^r). This strain was cured of the transposon in pspB via FLP recombinase using published methodology. The resulting strain, BW25113 pspB, was used as a host for multicopy vectors expressing key beta-lactamases. Multicopy plasmids directing constitutive expression of beta-lactamases were established as follows: Synthetic, codon optimized genes encoding E. coli KPC-2, SHV-12 and CTX-M-15 beta-lactamases were made by DNA2.0 (Palo Alto, Calif.). Each of the synthetic fragments were designed to contain NotI and NcoI restriction sites at their termini, allowing ligation into a NotI/NcoI digested pET28a(+) derivative for protein expression. […] The codon optimized nucleotide sequences and relevant primer recognition information is shown below:
(§4) The PCR products were then digested with XhoI and EcoRI and ligated into similarly digested plasmid pAH63-pstS(BlaP). […] Therefore, expression of beta-lactamases from pAH63-pstS(BlaP) based constructs is constitutive and the signal sequence is provided to direct these proteins to the periplasm. […] These fragments were then digested with XbaI and EcoRI, and each was inserted into pBAD18-kan that had been digested with the same enzymes to generate multicopy vectors expressing KPC-2, SHV-12 and CTX-M-15, respectively. These vectors were transformed into BW25113 pspB to generate strains NB27273-CDY0033 (expressing KPC-2), NB27273-CDY0030 (expressing SHV-12), NB27273-CDY0034 (expressing CTX-M-15) and NB27273-CDY0036 (expressing AmpC). The pBAD18-kan vector also contains the TEM promoter region and signal sequence, (but lacks any intact beta-lactamase genes) and was transformed into BW25113 pspB using standard protocols to generate the control strain NB27273-CDY0026.

E. coli (SHV-12) = experiment: microbe, parasite or virus in culture; details: for MIC of aztreonam with beta-lactamase inhibitor: AZ + BLI at 2 μg/mL; for Activity of Beta-Lactam 5 with beta-lactamase inhibitor: Beta-Lactam 5 + BLI at 2 μg/mL; for MIC of ceftazidime with beta-lactamase inhibitor: Ceft + BLI at 2 μg/mL; for MIC of meropenem with beta-lactamase inhibitor: Mero + BLI at 2 μg/mL
Description: as §1, §2, §3, §4

E. coli (CTX-M-15) = experiment: microbe, parasite or virus in culture; details: for MIC of aztreonam with beta-lactamase inhibitor: AZ + BLI at 2 μg/mL; for Activity of Beta-Lactam 5 with beta-lactamase inhibitor: Beta-Lactam 5 + BLI at 2 μg/mL; for MIC of ceftazidime with beta-lactamase inhibitor: Ceft + BLI at 2 μg/mL; for MIC of meropenem with beta-lactamase inhibitor: Mero + BLI at 2 μg/mL
Description: as §1, §2, §3, §4

E. coli ATCC 25922 = experiment: MIC by broth microdilution, BLI alone; details: Escherichia coli, ATCC25922, read-out: Minimal Inhibitory Concentrations (MIC) of selected BLIs
Description: as §1, with “MIC. Performance of the assay was monitored by testing aztreonam against laboratory quality control strains in accordance with guidelines of the CLSI.” for “MIC.”

K. pneumoniae ATCC 43816 = experiment: MIC by broth microdilution, BLI alone; details: Klebsiella pneumoniae, ATCC43816, read-out: Minimal Inhibitory Concentrations (MIC) of selected BLIs
Description: as §1, with “MIC. Performance of the assay was monitored by testing aztreonam against laboratory quality control strains in accordance with guidelines of the CLSI.” for “MIC.”

P. aeruginosa ATCC 27853 = experiment: MIC by broth microdilution, BLI alone; details: Pseudomonas aeruginosa, ATCC27853, read-out: Minimal Inhibitory Concentrations (MIC) of selected BLIs
Description: as §1, with “MIC. Performance of the assay was monitored by testing aztreonam against laboratory quality control strains in accordance with guidelines of the CLSI.” for “MIC.”

[1] = tested on: Enterobacter cloacae NB25044 (CTX-M-12, ACT, KPC-2); details: AZ + BLI at 2 μg/mL
Description: as §1, §2

E. coli (OXA-18) = experiment: microbe, parasite or virus in culture; details: for MIC of aztreonam with beta-lactamase inhibitor: AZ + BLI at 2 μg/mL; for Activity of Beta-Lactam 5 with beta-lactamase inhibitor: Beta-Lactam 5 + BLI at 2 μg/mL; for MIC of ceftazidime with beta-lactamase inhibitor: Ceft + BLI at 2 μg/mL; for MIC of meropenem with beta-lactamase inhibitor: Mero + BLI at 2 μg/mL; for MIC of piperacillin with beta-lactamase inhibitor: Pip + BLI at 2 μg/mL
Description: as §1, §2
Construction of E. coli isogenic strains, NB27273-CDY0105 (OXA-18) and NB27273-CDY0048 (TEM-10). […] The gene encoding OXA-18 was then digested with XhoI and EcoRI and inserted into this vector, from which the gene for GIM-1 had been removed with XhoI and EcoRI.
These final vectors for expression of OXA-18 and TEM-10 were transformed into BW25113 pspB to generate strains NB27273-CDY0105 (expressing OXA-18) and NB27273-CDY0048 (expressing TEM-10).

| SMILES | MIC of aztreonam with beta-lactamase inhibitor (E. coli (KPC-2)) [µg/mL] | Activity of Beta-Lactam 5 with beta-lactamase inhibitor (E. coli (KPC-2)) [µg/mL] | MIC of ceftazidime with beta-lactamase inhibitor (E. coli (KPC-2)) [µg/mL] | MIC of meropenem with beta-lactamase inhibitor (E. coli (KPC-2)) [µg/mL] | MIC of aztreonam with beta-lactamase inhibitor (E. coli (SHV-12)) [µg/mL] | Activity of Beta-Lactam 5 with beta-lactamase inhibitor (E. coli (SHV-12)) [µg/mL] | MIC of ceftazidime with beta-lactamase inhibitor (E. coli (SHV-12)) [µg/mL] | MIC of meropenem with beta-lactamase inhibitor (E. coli (SHV-12)) [µg/mL] | MIC of aztreonam with beta-lactamase inhibitor (E. coli (CTX-M-15)) [µg/mL] | Activity of Beta-Lactam 5 with beta-lactamase inhibitor (E. coli (CTX-M-15)) [µg/mL] | MIC of ceftazidime with beta-lactamase inhibitor (E. coli (CTX-M-15)) [µg/mL] | MIC of meropenem with beta-lactamase inhibitor (E. coli (CTX-M-15)) [µg/mL] | MIC (E. coli ATCC 25922) [µg/mL] | MIC (K. pneumoniae ATCC 43816) [µg/mL] | MIC (P. aeruginosa ATCC 27853) [µg/mL] | Activity of aztreonam with beta-lactamase inhibitor [1] [µg/mL] | MIC of aztreonam with beta-lactamase inhibitor (E. coli (OXA-18)) [µg/mL] | Activity of Beta-Lactam 5 with beta-lactamase inhibitor (E. coli (OXA-18)) [µg/mL] | MIC of ceftazidime with beta-lactamase inhibitor (E. coli (OXA-18)) [µg/mL] | MIC of meropenem with beta-lactamase inhibitor (E. coli (OXA-18)) [µg/mL] | other results |
| --- | --- | --- | --- | --- | --- | --- | --- | --- | --- | --- | --- | --- | --- | --- | --- | --- | --- | --- | --- | --- | --- |
| O=C(NC1CCNCC1)[C@@H]1CC[C@@H]2CN1C(=O)N2OS(=O)(=O)O [Relebactam] | 1 | 0.125 | 0.25 | ≤0.06 | 32 | 0.125 | 8 | ≤0.06 | 0.5 | 0.25 | 0.5 | ≤0.06 | > 64 | > 64 | > 64 | >64 | >64 | 0.25 | >64 | ≤0.06 | MIC of piperacillin with beta-lactamase inhibitor (E. coli (OXA-18)): >32 µg/mL |
| O=C1NC[C@@H]2C[C@@H]3CN(C(=O)N3OS(=O)(=O)[O-])[C@H]12.[Na+] [Example 1, Sodium (4R,5aS,8aS)-2,8-dioxohexahydro-2H-1,4-methanopyrrolo[3,4-d][1,3]diazepin-3(4H)-yl sulfate] | 0.125 | 0.25 | 0.125 | ≤0.06 | 0.25 | 0.25 | 0.25 | ≤0.06 | ≤0.06 | 0.25 | 0.25 | ≤0.06 | > 64 | > 64 | > 64 | 4 | 1 | 0.25 | 0.5 | ≤0.06 | MIC of piperacillin with beta-lactamase inhibitor (E. coli (OXA-18)): 2 µg/mL |
| NC(=O)[C@@H]1CC[C@@H]2CN1C(=O)N2OS(=O)(=O)O [Avibactam] | 0.125 | 0.125 | 0.25 | ≤0.06 | 1 | 0.125 | 0.5 | ≤0.06 | 0.125 | 0.25 | 0.25 | ≤0.06 | 16 (≈ 60.3 µM) | 32 (≈ 121 µM) | > 64 | 8 | 1 | 0.125 | 0.5 | ≤0.06 | MIC of piperacillin with beta-lactamase inhibitor (E. coli (OXA-18)): 2 µg/mL |

Reference: US10065957B2, “Beta-lactamase inhibitors” (Novartis AG, priority 2016, dated 2018)
